# Measurements as given in patent US20230124720A1, “APPLICATION OF ACRIDINEDIONE COMPOUND IN PREPARATION OF ANTI-DIABETIC DRUGS” (THE FOURTH MILITARY MEDICAL UNIVERSITY, priority 2020, published 2023).
# Key:
# MIN6 cells = test: Cytotoxicity / growth of MIN6 cells (FIG. 1A); assay type: cell-based, mouse; details: 100 μmol/L
# [1] = target: T1, HEK-293T cells stably overexpressing GPR40 (Homo sapiens, UniProt O14842); test: GPR40 agonistic activity assay (Fluo-4 AM fluorescence, Flexstation); assay type: cell-based
# T1 construct: expressed in transfected cells; host or cells: HEK-293T
# Method: There were triplicate wells for each group, and a Flexstation instrument was used for detecting and reading fluorescence values. Each compound dilution concentration was: 200 μmol/L, 100 μmol/L, 50 μmol/L, 10 μmol/L, 5 μmol/L.
# EC50 value for each compound was calculated from the measured fluorescence value according to the following formula:
# Relative agonism ratio=(fluorescence value of test compound-fluorescence value of negative control)/(fluorescence value of agonist positive control-fluorescence value of negative control)*100%;
# [2] = Plasma kinetics after single oral administration in SD rats (LC-MS/MS); assay type: in vivo, rat; details: single oral 10 mg/kg
# Method: Eight healthy male SD rats, weighing 200-220 g, were housed in a clean animal room maintained at constant temperature (23±2° C.) and humidity (55±10%) with a 12 h/12 h artificial light cycle with free access to food and water and conditioned for 3 days prior to the experiment. All rats were fasted from water for 12 h prior to the experiment, and after oral administration of an ADD-16 solution (10 mg/kg) to each rat, and blood was taken at the orbital site at 5, 10, 15, 30, 45, 60, 120, 240, 360, 720, 1440 min. The blood was immediately fed into heparinized centrifuge tubes at 4° C., 3000 rpm/min, centrifuged for 10 min, and the supernatant plasma was carefully aspirated and stored at −80° C. Assays were performed by natural thawing at room temperature and plasma sample pre-treatment procedures were followed to determine plasma concentrations in rats following a single dose using the established LC-MS/MS method.
# STZ-induced T2DM rats = test: Serum insulin and HOMA-IR in T2DM rats; assay type: in vivo, rat
# Method: 150 male SD rats, housed in cages in a clean constant temperature (23±2° C.) and humidity (55±10%) animal house, were manually adjusted on a daily 12 h/12 h diurnal light cycle with free access to water. After 3 days of adaptive feeding, 150 rats were randomly divided into normal and model groups. The normal (Con, n=15) group of rats remained on raw chow and the model group (n=135) of rats were given high fat high sugar chow. All rats were fed twice daily and the amount of feed was adjusted as needed to ensure adequate feed. After 8 weeks of group feeding, the model group rats were given an intraperitoneal injection of 25 mg/kg STZ solution with a 12 h fast prior to injection. […] At the same time, the Con group was daily administrated with a 0.5% CMC-Na solution by gavage, the body weight and postprandial blood sugar (PBG) of each group of rats were monitored weekly. Relevant indicators of lipid metabolism were measured after the end of the study.
# In T2DM rat serum insulin assay, fasting serum insulin levels in rats were measured by a commercial insulin ELISA kit. The extent of body insulin resistance was assessed using the Insulin Resistance Index, which was calculated using the Homeostasis model assessment (HOMA-IR) according to literature reports, i.e., HOMA-IR=(fasting glucose×fasting insulin)/22.5.
# T1 sequence (O14842 whole entry): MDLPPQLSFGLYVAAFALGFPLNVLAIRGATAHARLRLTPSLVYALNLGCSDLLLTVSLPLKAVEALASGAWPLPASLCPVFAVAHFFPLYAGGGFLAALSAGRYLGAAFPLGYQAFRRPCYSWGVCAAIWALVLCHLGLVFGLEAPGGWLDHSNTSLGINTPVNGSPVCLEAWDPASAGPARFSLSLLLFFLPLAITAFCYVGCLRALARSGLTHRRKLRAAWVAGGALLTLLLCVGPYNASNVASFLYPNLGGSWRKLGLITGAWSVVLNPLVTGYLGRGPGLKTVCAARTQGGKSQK
compound,measurement,setting,value
CC1(C)CC(=O)C2=C(C1)NC1=C(C(=O)CC(C)(C)C1)C2c1ccc(OCc2ccc(C(=O)O)cc2)c(Br)c1 [ADD-16],effect on MIN6 cell growth (in words),MIN6 cells,inhibitory effect on MIN6 cell growth
same,EC50,"[1]; GPR40 agonism, n = 6",12.3 µM
same,agonistic activity (in words),[1]; among the candidate compounds screened,highest agonistic activity
same,CL/F,"[2]; male, SD, rat, plasma, po, 10 mg/kg, plasma, n = 8, read-out: CLz/F (clearance) (converted)",~0.15 mL/min/kg
same,Cmax,"[2]; male, SD, rat, plasma, po, 10 mg/kg, plasma, n = 8, read-out: Cmax (plasma concentration maximum)",~395 ng/mL
same,Vd/F,"[2]; male, SD, rat, plasma, po, 10 mg/kg, plasma, n = 8, read-out: Vz/F (apparent volume of distribution)",~0.36 L/kg
same,half-life,"[2]; male, SD, rat, plasma, po, 10 mg/kg, plasma, n = 8, read-out: t1/2z (half-life) (converted)",~30.2 h
same,AUC(0-inf),"[2]; male, SD, rat, plasma, n = 8",2420 ± 527 ng·h/mL
same,AUC(0-t),"[2]; male, SD, rat, plasma, n = 8",1130 ± 35.7 ng·h/mL
same,Tmax,"[2]; male, SD, rat, plasma, n = 8",0.5 h
same,MRT last,"[2]; male, SD, rat, plasma, n = 8, read-out: MRT(0-t)",8.8 ± 0.4 h
same,MRT inf,"[2]; male, SD, rat, plasma, n = 8, read-out: MRT(0-∞)",37.5 ± 9.2 h
same,time of maximum blood concentration,[2],30 min
same,Cz,"[2]; plasma, n = 8",29.8 ± 10.3 ng/mL
same,VRT(0-t),"[2]; plasma, n = 8",55.2 ± 3.0 h^2
same,VRT(0-∞),"[2]; plasma, n = 8",1908.2 ± 835.5 h^2
same,HOMA-IR (in words),STZ-induced T2DM rats,significantly reduced HOMA-IR values
same,serum insulin level (in words),STZ-induced T2DM rats; fasting serum,reduce compensatorily elevated insulin levels
